The record followed here is US20250170156A1, “TOLL-LIKE RECEPTOR LIGANDS” (INIMMUNE CORPORATION, priority 2018, published 2025).

One data set relates to hMM6 cells. The data set is described as follows: Induction of MIP-1β cytokine from hMM6 cells (ELISA). Type of data set: cell-based. To be noted: Homo sapiens, 18 hours. As for the experimental part:
Induction of […] cytokine from hMM6 cells. The compounds were next tested in the established MM6 potency assay measuring MIP-1β cytokine production as an output measure of compound potency. Human monocytic cell line, Mono-Mac-6 (hMM6) was obtained from DSMZ (Brunswick, Germany). […] Treatments started at a 100 µM concentration proceeded with a 16-point, 5-fold dilution series. Supernatants were harvested and analyzed for production of MIP-1β via ELISA (R&D systems, catalog #DY271).

The nature of data set [1]: Stability of aqueous formulations by reverse-phase-HPLC. Type of data set: physicochemical. As to the method:
Formulation. The salted compound was accurately weighed into depyrogenated glass vials, and the required volume of aqueous vehicle added to attain the desired concentration. Vials were placed in a sonication bath (sonication bath temperature≤45° C.) to assist solubility and reduce particle size to achieve sterile filtration without significant loss of compound. Once the solution appeared homogeneous, the particle size was periodically monitored by dynamic light scattering until the solution turned clear and the particle size was <200 mn, or the particle size no longer reduced with continued sonication. The formulation was filtered through a 0.22p PVDF membrane filter into a depyrogenated glass vial and the resulting solution quantitated by RP-HPLC.
Aqueous formulations of compounds 1, 2, 3, 4, 5 and 6 were aliquoted into small depyrogenated vials for stability evaluation at temperatures of 2°-8° C., 25° C., and 40° C. This mirrors ICH stability temperature guidelines, but humidity was not controlled. A vial was pulled for each time point/temperature and analyzed by reverse-phase-HPLC (FIGS. 9-14) according to the following schedule starting from 2 weeks to up to 12 months.

The test system of data set [2] is primary hPBMCs. Nature of the data set: Induction of MIP-1β from primary hPBMCs (ELISA). To be noted: Homo sapiens.
In a further data set the target is T1, hTLR4 (Homo sapiens, UniProt O00206+Q9Y6Y9).
T1 construct: expressed in transfected cells; host or cells: HEK cells expressing hTLR4 and an NF-κB driven SEAP reporter
T1 sequence (O00206 24-839): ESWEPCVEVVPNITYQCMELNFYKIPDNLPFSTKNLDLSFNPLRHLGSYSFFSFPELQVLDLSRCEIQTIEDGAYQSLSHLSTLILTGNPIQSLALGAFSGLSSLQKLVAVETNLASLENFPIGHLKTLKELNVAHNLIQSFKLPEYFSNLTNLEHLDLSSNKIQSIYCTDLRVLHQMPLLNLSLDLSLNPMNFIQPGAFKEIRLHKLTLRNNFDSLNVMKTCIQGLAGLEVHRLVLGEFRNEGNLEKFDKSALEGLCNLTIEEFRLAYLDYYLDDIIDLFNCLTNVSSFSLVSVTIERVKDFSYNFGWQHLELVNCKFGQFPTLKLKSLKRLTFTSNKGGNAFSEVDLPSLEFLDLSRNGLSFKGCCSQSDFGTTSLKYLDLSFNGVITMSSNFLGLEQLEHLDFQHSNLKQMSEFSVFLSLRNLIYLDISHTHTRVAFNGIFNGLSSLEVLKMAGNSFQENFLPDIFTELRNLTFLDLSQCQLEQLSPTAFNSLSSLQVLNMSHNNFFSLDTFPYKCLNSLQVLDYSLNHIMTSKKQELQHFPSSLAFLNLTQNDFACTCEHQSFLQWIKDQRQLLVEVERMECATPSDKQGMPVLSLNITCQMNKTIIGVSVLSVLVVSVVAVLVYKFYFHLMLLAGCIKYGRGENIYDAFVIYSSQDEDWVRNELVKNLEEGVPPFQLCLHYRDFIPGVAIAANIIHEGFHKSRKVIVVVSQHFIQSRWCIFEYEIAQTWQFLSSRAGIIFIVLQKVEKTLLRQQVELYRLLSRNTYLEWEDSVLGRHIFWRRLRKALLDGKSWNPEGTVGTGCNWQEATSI
T1 sequence (Q9Y6Y9 17-160 limits assumed): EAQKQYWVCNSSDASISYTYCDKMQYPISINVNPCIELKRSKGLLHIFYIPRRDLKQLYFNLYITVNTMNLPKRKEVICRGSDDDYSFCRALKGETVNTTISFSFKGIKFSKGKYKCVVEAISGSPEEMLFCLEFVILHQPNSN
The data set is described as follows: HEK hTLR4 NF-κB driven SEAP reporter assay (hTLR4 activation). The class given is cell-based. Particulars: 18 hours. As for the experimental part: hTLR4 activation. HEK hTLR4-expressing cells were treated with 100 μM concentration of test compound followed by a 5-fold dilution series. HEK hTLR4-expressing cells also contained an NF-κB driven SEAP reporter and were stimulated with the indicated concentration (FIG. 1A-1C) of the test compound for 18 hours followed by assessment of the cellular supernatant for SEAP by a Quantikine SEAP assay (InvivoGen). The SEAP assay was used to look at secretion of the NF-κB driven alkaline-phosphatase reporter gene in response to TLR4 activation by the compounds and results are interpreted both in terms of potency of the compounds to induce SEAP activation (i.e. potency where a lower EC50 indicates higher potency) and efficacy for receptor activation (i.e. maximal SEAP induction).

In a further data set the test system is mRAW264.7 cells. Nature of the data set: Induction of MIP-1β cytokine from mRAW264.7 cells (ELISA). Particulars: Mus musculus, 18 hours, read-out: mRaw MIP-1β EC50. The class given is cell-based. As for the experimental part: Induction of MIP-1β cytokine from mRAW264.7 cells. […] Treatments started at 20 μM concentration with a 5-fold serial dilution until 3.2768E-09 μM. Supernatants were harvested and analyzed for production of MIP-1β via ELISA (R& D Systems-cat #DY451).

Data set [3] concerns primary hPBMCs. The data set is described as follows: Induction of RANTES from primary hPBMCs (ELISA). Particulars: Homo sapiens.
In data set [4] the test system is influenza virus antigen A/Victoria/210/2009-H3N2. The data set is described as follows: Vaccine adjuvant study, murine influenza virus vaccination model. To be noted: intramuscular, 0.1, 0.01 or 0.001 μg with 0.2 μg antigen, 14 days after single immunization, 2% glycine. Type of data set: in vivo, BALB/c mice. As for the experimental part:
Vaccine adjuvant study. Compounds 2, 4, 5 and 7 were evaluated as vaccine adjuvant in a murine influenza virus vaccination model. 7-9 week old BALB/c mice (10 mice per group) were injected intramuscularly in a hind limb with the influenza virus antigen A/Victoria/210/2009-H3N2 (0.2 μg/mouse) with or without 0.1, 0.01 or 0.001 μg of compound 2, 4, 5 or 7 (formulated in 2% glycine). Fourteen days after a single immunization, animals were bled via the submandibular vein and serum was collected to assay for A/Victoria specific antibodies by ELISA assay (FIG. 7).

[5] abbreviates: read-out: hPBMCs EC50 MIP-1β, Table 3a, Average of Donors 10, 5, 2.
Setting [6] is: read-out: hPBMCs EC50 MIP-1β, Table 3a, Donor 2.
Where [7] appears, read: read-out: hPBMCs EC50 MIP-1β, Table 3a, Donor 5.
Setting [8] is: read-out: hPBMCs EC50 MIP-1β, Table 3a, Donor 10.
[9] abbreviates: read-out: hPBMCs EC50 MIP-1β, Table 4b, Average of Donors 22, 5.
Setting [10] is: read-out: hPBMCs EC50 MIP-1β, Table 4b, Donor 5.
[11] abbreviates: read-out: hPBMCs EC50 MIP-1β, Table 4b, Donor 22.
Where [12] appears, read: read-out: hPBMCs EC50 RANTES, Table 3a, Average of Donors 10, 5, 2.
The mark [13] stands for this setting: read-out: hPBMCs EC50 RANTES, Table 3a, Donor 2.
Where [14] appears, read: read-out: hPBMCs EC50 RANTES, Table 3a, Donor 5.
Where [15] appears, read: read-out: hPBMCs EC50 RANTES, Table 3a, Donor 10.
[16] abbreviates: read-out: hPBMCs EC50 RANTES, Table 4b, Average of Donors 22, 5.
Setting [17] is: read-out: hPBMCs EC50 RANTES, Table 4b, Donor 5.
[18] abbreviates: read-out: hPBMCs EC50 RANTES, Table 4b, Donor 22.

Each structure is given as a SMILES string. Some results are limits rather than exact numbers.

As for `CCCCCCCCCCC[C@H](CC(=O)NCCO[C@@H]1OC(CO)[C@@H](OS(=O)(=O)O)[C@H](NC(=O)C[C@@H](CCCCCCCCCCC)OC(=O)CCCCCCCCC)C1NC(=O)C[C@@H](CCCCCCCCCCC)OC(=O)CCCCCCCCC)OC(=O)CCCCCCCCC` (stereo partly drawn) [Compound 2, 2-[(R)-3-decanoyloxytetradecanoylamino]ethyl 2,3-di-[(R)-3-decanoyloxytetradecanoylamino]-2,3-dideoxy-4-O-sulfoxy-β-D-allopyranoside], the EC50 was 5.89 nM in the data set on hMM6 cells; 0.0963 nM in the data set on primary hPBMCs [2] (setting [5]); 0.0755 nM in the data set with primary hPBMCs [2] (setting [6]); 0.166 nM in the data set on primary hPBMCs [2] (setting [7]); 0.0475 nM with primary hPBMCs [2] (setting [8]); 0.453 nM in the data set with primary hPBMCs [2] (setting [9]). The EC50 stood at 0.119 nM in the data set with primary hPBMCs [2] (setting [10]); 0.786 nM in the data set on primary hPBMCs [2] (setting [11]); 64 nM at hTLR4 (Table 1a); 41 nM at hTLR4 (Table 1b); 0.0176 nM in the data set on mRAW264.7 cells; 0.243 nM with primary hPBMCs [3] (setting [12]). For the same compound, the EC50 came to 0.38 nM with primary hPBMCs [3] (setting [13]); 0.285 nM with primary hPBMCs [3] (setting [14]); 0.0642 nM in the data set on primary hPBMCs [3] (setting [15]); 0.423 nM in the data set on primary hPBMCs [3] (setting [16]); 0.238 nM in the data set with primary hPBMCs [3] (setting [17]); 0.609 nM in the data set with primary hPBMCs [3] (setting [18]). Further, the “time with no degradation” value in data set [1] (25° C., formulated in 2% glycine (FIG. 10A)) was ≥ 12 months. For the same compound, the degradation entry in data set [1] (after 12 months at 40° C., formulated in 2% glycerol (FIG. 10B)) is listed as “less than 10%”. Further, in data set [4], the “adjuvant effect on flu-specific IgG2a antibody titers compared to antigen alone” value is given as “dose dependent adjuvant effect”.

On to `CCCCCCCCCCC[C@H](CC(=O)NCCO[C@@H]1O[C@H](CO)[C@@H](OP(=O)(O)O)[C@@H](NC(=O)C[C@@H](CCCCCCCCCCC)OC(=O)CCCCCCCCC)[C@H]1NC(=O)C[C@@H](CCCCCCCCCCC)OC(=O)CCCCCCCCC)OC(=O)CCCCCCCCC` [Compound 1, 2-[(R)-3-decanoyloxytetradecanoylamino]ethyl 2,3-di-[(R)-3-decanoyloxytetradecanoylamino]-2,3-dideoxy-4-O-phosphono-β-D-allopyranoside], for which the EC50 stood at 0.251 nM with hMM6 cells; 0.0214 nM in the data set with primary hPBMCs [2] (setting [5]); 0.0198 nM in the data set with primary hPBMCs [2] (setting [6]); 0.0241 nM with primary hPBMCs [2] (setting [7]); 0.0202 nM with primary hPBMCs [2] (setting [8]); 0.18 nM in the data set on primary hPBMCs [2] (setting [9]). Moreover, the EC50 in the data set with primary hPBMCs [2] (setting [10]) was 0.0761 nM; in the data set on primary hPBMCs [2] (setting [11]), 0.285 nM; at hTLR4 (Table 1a), 13.7 nM; at hTLR4 (Table 1b), 19.7 nM; in the data set on mRAW264.7 cells, 0.0576 nM; with primary hPBMCs [3] (setting [12]), 0.0205 nM. For the same compound, the EC50 in the data set with primary hPBMCs [3] (setting [13]) was 0.0121 nM; with primary hPBMCs [3] (setting [14]), 0.0254 nM; in the data set on primary hPBMCs [3] (setting [15]), 0.0239 nM; with primary hPBMCs [3] (setting [16]) it was 0.135 nM; with primary hPBMCs [3] (setting [17]), 0.0899 nM; with primary hPBMCs [3] (setting [18]), 0.179 nM. In data set [1] (40° C., formulated in 2.5% glycine (FIGS. 9, 12)), the “time with no degradation” value amounted to 6 weeks.
